Results: patent publication US20240239766A1, “3-AMINO PIPERIDYL SODIUM CHANNEL INHIBITORS” (Genentech, Inc., priority 2021, published 2024)
pIC50: −log10 of the molar value. Where a name gives a salt, the structure may show the parent alone.

Biological target: hNav1.7 (Homo sapiens (Human), UniProt Q15858)
Assay: Patch voltage clamp electrophysiology assay (EP), Syncropatch 384PE, CHO cells expressing Nav1.7
Assay type: cell-based
Conditions: holding potential −50 mV; 7.5 min compound incubation; read-out: EP SP hNav1.7 EVO (IC50)
Description: Example 101c: Electrophysiological Assay (EP) (In Vitro Assay)
Patch voltage clamp electrophysiology allows for the direct measurement and quantification of block of voltage-gated sodium channels (NaV's), and allows the determination of the time- and voltage-dependence of block which has been interpreted as differential binding to the resting, open, and inactivated states of the sodium channel (Hille, B., Journal of General Physiology (1977), 69: 497-515).
The following voltage clamp electrophysiology studies are performed on representative compounds using cells heterologously expressing Nav1.7 or Nav1.5 channels. cDNAsfor Nav1.7 (NM_002977) and Nav1.5 (AC137587) are stably expressed in Chinese Hamstr Ovary (CHO) cells and CHL (Chinese Hamster Lung) cells respectively. Sodium currents are measured in the whole-cell configuration using Syncropatch 384PE (Nanlon Technologies, Germany). 1NPC®-384 chips with custom medium resistance and single hole mode are used. Internal solution consists of (in mM): […], 10 CsCl, 20 EGTA, and 10 Hepes (pH adjusted to 7.2); and external solution contains (in mM): 60 NMDG, 80 NaCl, 4 KCl, 1 MgCl2, 2 CaCl2), 2 D-Glucose monohydrate, 10 Hepes (pH adjusted to 7.4 with NaOH).
After system flushing, testing compounds are dissolved in external solution containing 0.1% Pluronic F-127. The chip is moved into the measuring head and the instrument primes the chip with external and internal solutions. 10 μl cells are added to the chip from a cell hotel, and a negative pressure of −50 mBar is applied to form a seal. Following treatment with seal enhancer solution and wash-off with external solution, negative pressure of −250 mbar is applied for 1 second to achieve the whole-cell configuration, followed by three washing steps in external solution. 20 μl of compounds is added to 40 μl in each well (1:3 dilution of compounds), and after mixing, 20 μl is removed so the volume is retained at 40 ul. After approximately 13 minutes recordings, 20 μl/well of 2 uM TTX, or 333 uM Tetracaine (for Nav1.5) is added to achieve full block.
For voltage protocol, an holding potential of −50 mV is applied during the whole experiment. A depolarizing step is applied to −10 mV for 10 ms, followed by a hyperpolarization step to −150 mV for 20 ms to allow channel recovery from inactivation. A second depolarizing step is applied from −150 mV to −10 mV for 10 ms, where currents are measured to derive blocking effects of compounds. Inhibition is determined based on 7.5 min of compound incubation.

Sequence of hNav1.7 (Q15858 other isoform, or with tags, fused parts or gaps): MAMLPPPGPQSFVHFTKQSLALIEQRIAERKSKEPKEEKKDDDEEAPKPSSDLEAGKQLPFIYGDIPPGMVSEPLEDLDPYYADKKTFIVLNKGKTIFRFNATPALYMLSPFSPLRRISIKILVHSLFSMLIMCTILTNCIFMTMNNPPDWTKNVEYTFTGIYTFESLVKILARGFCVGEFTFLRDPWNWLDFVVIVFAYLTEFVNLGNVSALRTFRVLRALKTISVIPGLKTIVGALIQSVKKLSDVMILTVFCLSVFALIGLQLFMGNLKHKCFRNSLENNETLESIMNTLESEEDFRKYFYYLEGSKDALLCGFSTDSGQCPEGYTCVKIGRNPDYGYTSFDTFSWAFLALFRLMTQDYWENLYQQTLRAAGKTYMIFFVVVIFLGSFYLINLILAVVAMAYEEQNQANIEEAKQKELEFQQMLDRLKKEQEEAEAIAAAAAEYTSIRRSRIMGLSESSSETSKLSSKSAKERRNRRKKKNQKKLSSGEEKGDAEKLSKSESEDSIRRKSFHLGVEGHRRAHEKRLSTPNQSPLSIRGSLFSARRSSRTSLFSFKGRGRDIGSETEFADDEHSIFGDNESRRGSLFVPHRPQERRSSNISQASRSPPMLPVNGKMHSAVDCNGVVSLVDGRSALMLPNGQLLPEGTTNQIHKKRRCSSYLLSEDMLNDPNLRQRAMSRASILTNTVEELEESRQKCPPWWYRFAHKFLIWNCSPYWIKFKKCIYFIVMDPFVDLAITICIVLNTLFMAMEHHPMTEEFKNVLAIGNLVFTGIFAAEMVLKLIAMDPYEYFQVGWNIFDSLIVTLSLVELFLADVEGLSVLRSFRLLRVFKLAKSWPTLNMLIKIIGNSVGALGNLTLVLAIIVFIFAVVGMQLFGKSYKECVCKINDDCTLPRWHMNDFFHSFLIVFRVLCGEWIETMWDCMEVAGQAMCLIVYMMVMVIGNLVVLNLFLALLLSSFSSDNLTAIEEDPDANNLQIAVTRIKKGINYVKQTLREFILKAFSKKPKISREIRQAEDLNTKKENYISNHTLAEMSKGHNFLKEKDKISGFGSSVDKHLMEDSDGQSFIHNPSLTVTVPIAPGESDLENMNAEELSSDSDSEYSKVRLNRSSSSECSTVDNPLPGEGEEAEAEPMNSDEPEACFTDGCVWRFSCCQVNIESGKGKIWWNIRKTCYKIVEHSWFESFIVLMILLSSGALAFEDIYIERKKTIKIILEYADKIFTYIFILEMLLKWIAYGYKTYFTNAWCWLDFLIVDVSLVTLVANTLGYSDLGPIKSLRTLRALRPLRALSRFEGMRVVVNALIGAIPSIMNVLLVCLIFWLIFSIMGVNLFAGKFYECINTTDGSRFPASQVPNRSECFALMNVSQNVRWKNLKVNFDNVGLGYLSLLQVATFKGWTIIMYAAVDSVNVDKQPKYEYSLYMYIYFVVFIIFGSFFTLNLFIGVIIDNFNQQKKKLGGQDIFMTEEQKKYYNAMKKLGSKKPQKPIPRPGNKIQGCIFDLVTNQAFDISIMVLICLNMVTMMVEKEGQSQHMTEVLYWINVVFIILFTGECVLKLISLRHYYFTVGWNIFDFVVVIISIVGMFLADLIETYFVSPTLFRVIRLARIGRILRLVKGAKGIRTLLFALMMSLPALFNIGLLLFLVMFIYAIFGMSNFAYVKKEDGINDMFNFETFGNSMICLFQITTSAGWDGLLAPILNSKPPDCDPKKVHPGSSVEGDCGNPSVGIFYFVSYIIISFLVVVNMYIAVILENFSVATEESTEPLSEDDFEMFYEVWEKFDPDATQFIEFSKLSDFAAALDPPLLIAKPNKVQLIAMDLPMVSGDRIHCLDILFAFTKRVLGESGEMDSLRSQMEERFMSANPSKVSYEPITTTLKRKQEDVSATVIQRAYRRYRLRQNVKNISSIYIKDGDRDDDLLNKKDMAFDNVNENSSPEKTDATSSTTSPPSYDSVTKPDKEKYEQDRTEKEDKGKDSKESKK

Compound	pIC50
Cc1ccc(CC[C@]2(N(C)C)CCCN(c3cc(F)c(S(=O)(=O)Nc4ccncn4)c(F)c3)C2)cc1C(F)(F)F (single isomer, unassigned) [Example 84, formate]	8.55
Cc1ccc(CC[C@@]2(N(C)C)CCCN(c3cc(F)c(S(=O)(=O)Nc4ccncn4)c(F)c3)C2)cc1C(F)(F)F (single isomer, unassigned) [Example 85]	6.60
CN(C)[C@@]1(CCc2ccc(C3CC3)c(C(F)(F)F)c2)CCCN(c2cc(F)c(S(=O)(=O)Nc3ccncn3)c(F)c2)C1 (single isomer, unassigned) [Example 86]	8.42
CN(C)[C@]1(CCc2ccc(C3CC3)c(C(F)(F)F)c2)CCCN(c2cc(F)c(S(=O)(=O)Nc3ccncn3)c(F)c2)C1 (single isomer, unassigned) [Example 87]	6.17
CN(C)[C@@]1(CCc2cccc(C3CC3)c2)CCCN(c2cc(F)c(S(=O)(=O)Nc3ccncn3)c(F)c2)C1 (single isomer, unassigned) [Example 88, formate]	8.48
CN(C)[C@]1(CCc2cccc(C3CC3)c2)CCCN(c2cc(F)c(S(=O)(=O)Nc3ccncn3)c(F)c2)C1 (single isomer, unassigned) [Example 89, formate]	6.25
CN(C)[C@@]1(CCc2cccc(Cl)c2)CCCN(c2cc(F)c(S(=O)(=O)Nc3ccncn3)c(F)c2)C1 (single isomer, unassigned) [Example 90, formate]	5.35
CN(C)[C@]1(CCc2cccc(Cl)c2)CCCN(c2cc(F)c(S(=O)(=O)Nc3ccncn3)c(F)c2)C1 (single isomer, unassigned) [Example 91, formate]	7.94
CN[C@]1(CCc2cccc(C(F)(F)F)c2)CCCN(c2ccc(S(=O)(=O)Nc3ccncn3)c(F)c2)C1 [Example 3, (R)-2-Fluoro-4-(3-(methylamino)-3-(3-(trifluoromethyl)-phenethyl)piperidin-1-yl)-N-(pyrimidin-4-yl)benzenesulfonamide]	7.67
Cc1cc(N2CCC[C@](CCc3cccc(C(F)(F)F)c3)(N(C)C)C2)cc(F)c1S(=O)(=O)Nc1ccncn1 [Example 9, (S)-4-(3-(Dimethylamino)-3-(3-(trifluoromethyl)phenethyl)-piperidin-1-yl)-2-fluoro-6-methyl-N-(pyrimidin-4-yl)benzenesulfonamide]	6.22
Cc1cc(N2CCC[C@@](CCc3cccc(C(F)(F)F)c3)(N(C)C)C2)cc(F)c1S(=O)(=O)Nc1ccncn1 [Example 10, (R)-4-(3-(Dimethylamino)-3-(3-(trifluoromethyl)-phenethyl)piperidin-1-yl)-2-fluoro-6-methyl-N-(pyrimidin-4-yl)benzenesulfonamide]	8.58
CN1CCC(CN(C)C2(CCc3cccc(C(F)(F)F)c3)CCCN(c3ccc(S(=O)(=O)Nc4ccncn4)c(F)c3)C2)C1 (centres unmarked) [Example 31, 2-Fluoro-4-(3-(methyl((1-methylpyrrolidin-3-yl)methyl)amino)-3-(3-(trifluoromethyl)phenethyl)piperidin-1-yl)-N-(pyrimidin-4-yl)benzenesulfonamide formate]	8.07
CN1CC(N(C)[C@]2(CCc3cccc(C(F)(F)F)c3)CCCN(c3ccc(S(=O)(=O)Nc4ccncn4)c(F)c3)C2)C1 [Example 35, (R)-2-Fluoro-4-(3-(methyl(1-methylazetidin-3-yl)amino)-3-(3-(trifluoromethyl)phenethyl)piperidin-1-yl)-N-(pyrimidin-4-yl)benzenesulfonamide]	7.39
CN(C)[C@@]1(CCc2cccc(C(F)(F)F)c2Cl)CCCN(c2cc(F)c(S(=O)(=O)Nc3ccncn3)c(F)c2)C1 [Example 40, (S)-4-(3-(2-Chloro-3-(trifluoromethyl)phenethyl)-3-(dimethylamino)piperidin-1-yl)-2,6-difluoro-N-(pyrimidin-4-yl)benzenesulfonamide]	6.27
CN(C)[C@]1(CCc2cc(Cl)cc(C(F)(F)F)c2)CCCN(c2cc(F)c(S(=O)(=O)Nc3ccncn3)c(F)c2)C1 [Example 43, (R)-4-(3-(3-Chloro-5-(trifluoromethyl)phenethyl)-3-(dimethylamino)piperidin-1-yl)-2,6-difluoro-N-(pyrimidin-4-yl)benzenesulfonamide]	9.35
CN(C)[C@@]1(C[C@@H]2CCc3ccc(C(F)(F)F)cc32)CCCN(c2cc(F)c(S(=O)(=O)Nc3ccncn3)c(F)c2)C1 [Example 46, 4-((R)-3-(Dimethylamino)-3-(((S)-6-(trifluoromethyl)-2,3-dihydro-1H-inden-1-yl)methyl)piperidin-1-yl)-2,6-difluoro-N-(pyrimidin-4-yl)benzenesulfonamide formate]	5.88
CN(C)[C@@]1(C[C@H]2CCc3ccc(C(F)(F)F)cc32)CCCN(c2cc(F)c(S(=O)(=O)Nc3ccncn3)c(F)c2)C1 [Example 47, 4-((R)-3-(Dimethylamino)-3-(((R)-6-(trifluoromethyl)-2,3-dihydro-1H-inden-1-yl)methyl)piperidin-1-yl)-2,6-difluoro-N-(pyrimidin-4-yl)benzenesulfonamide formate]	6.51
CN(C)[C@]1(C[C@H]2CCc3ccc(C(F)(F)F)cc32)CCCN(c2cc(F)c(S(=O)(=O)Nc3ccncn3)c(F)c2)C1 [Example 48, 4-((S)-3-(Dimethylamino)-3-(((R)-6-(trifluoromethyl)-2,3-dihydro-1H-inden-1-yl)methyl)piperidin-1-yl)-2,6-difluoro-N-(pyrimidin-4-yl)benzenesulfonamide formate]	8.81
CN(C)[C@]1(C[C@@H]2CCc3ccc(C(F)(F)F)cc32)CCCN(c2cc(F)c(S(=O)(=O)Nc3ccncn3)c(F)c2)C1 [Example 49, 4-((S)-3-(Dimethylamino)-3-(((S)-6-(trifluoromethyl)-2,3-dihydro-1H-inden-1-yl)methyl)piperidin-1-yl)-2,6-difluoro-N-(pyrimidin-4-yl)benzenesulfonamide formate]	7.95
CN(C)[C@@]1(CCC2CCCCC2)CCCN(c2cc(F)c(S(=O)(=O)Nc3ccncn3)c(F)c2)C1 [Example 92, (S)-4-(3-(2-Cyclohexylethyl)-3-(dimethylamino)piperidin-1-yl)-2,6-difluoro-N-(pyrimidin-4-yl)benzenesulfonamide formate]	8.42
CN(C)[C@]1(CCC2CCCCC2)CCCN(c2cc(F)c(S(=O)(=O)Nc3ccncn3)c(F)c2)C1 [Example 93, (R)-4-(3-(2-Cyclohexylethyl)-3-(dimethylamino)piperidin-1-yl)-2,6-difluoro-N-(pyrimidin-4-yl)benzenesulfonamide formate]	6.61
CN(C)[C@@]1(C2CC(c3cccc(C(F)(F)F)c3)C2)CCCN(c2cc(F)c(S(=O)(=O)Nc3ccncn3)c(F)c2)C1 (stereo partly drawn) [Example 94, 4-((R)-3-(Dimethylamino)-3-((1r,3R)-3-(3-(trifluoromethyl)phenyl)-cyclobutyl)piperidin-1-yl)-2,6-difluoro-N-(pyrimidin-4-yl)benzenesulfonamide]	6.90
CN(C)C1(C2CC(c3cccc(C(F)(F)F)c3)C2)CCCN(c2cc(F)c(S(=O)(=O)Nc3ccncn3)c(F)c2)C1 (centres unmarked) [Example 95, 4-(3-(Dimethylamino)-3-(3-(3-(trifluoromethyl)phenyl)-cyclobutyl)piperidin-1-yl)-2,6-difluoro-N-(pyrimidin-4-yl)benzenesulfonamide]	7.85
